Experimental data reported in patent publication US20260167972A1, “AMINO ACID DERIVATIVES AS NOVEL DELIVERY AGENTS FOR FUNCTIONAL DELIVERY OF OLIGONUCLEOTIDES” (University of Rochester, priority 2022, published 2026).

Test system: cells
Assay: Delivery of fluorescent protein encoding mRNA and plasmid DNA into cells (FIG. 50)
Format: cell-based
Details: 14 nM 1-Nap-Phe-DAP, 24 hours
Procedure: FIG. 50 has images of cells treated with a mixture of 1-Nap-Phe-DAP with fluorescent protein encoding mRNA (panel A) and plasmid DNA (panel B). […] In this example, 14 nM of the 1-Nap-Phe-DAP was used with 1 microgram of mRNA or pDNA for 24 hours, after which the cells were images.

NCCCNC(=O)[C@H](Cc1ccccc1)NC(=O)Cc1cccc2ccccc12 [1-Nap-Phe-DAP]
delivery of fluorescent protein encoding mRNA into cells (1 microgram mRNA, FIG. 50 panel A): fluorescence visible in the cytosol
delivery of plasmid DNA into cells (1 microgram pDNA, FIG. 50 panel B): fluorescence visible in the cytosol
